The text below walks through data of patent US10596166B2, “Combination composition comprising huperzine” (priority 2015, dated 2020).

The test system of assay [1] is primary cortical neurons injured by glutamate. Kind of assay: glutamate toxicity on primary cortical neurons (neuron survival, neurite network). In kind it is cell-based, rat. As to conditions: glutamate 40 μM, 20 min. How it is done:
Rat cortical neurons were cultured as described by Singer et al., 1999 [J. Neuroscience 19(7), 2455-2463] and Callizot et al. 2013 [J. Neurosc. Res. 91(5), 706-716].
Briefly, pregnant females (Wistar; JanvierLabs, St Berthevin, France) at 15 days of gestation were killed by cervical dislocation. Foetuses were collected and immediately placed in ice-cold L15 Leibovitz medium (Pan Biotech, Aidenbach, Germany, Batch: 4120413) with a 2% penicillin (10,000 U/ml) and streptomycin (10 mg/ml) solution (PS; Pan Biotech, Aidenbach, Germany) and 1% bovine serum albumin (BSA; Pan Biotech, Aidenbach, Germany). Cortex was treated for 20 min at 37° C. with a trypsin-EDTA (Pan Biotech, Aidenbach, Germany) solution at a final concentration of 0.05% trypsin and 0.02% EDTA. The dissociation was stopped by addition of Dulbecco's modified Eagle's medium (DMEM) with 4.5 g/liter of glucose (Pan Biotech, Aidenbach, Germany), containing DNAse I grade II (final concentration 0.5 mg/ml; Pan Biotech, Germany) and 10% fetal calf serum (FCS; Invitrogen, Cergy Pointoise, France). Cells were mechanically dissociated by three forced passages through the tip of a 10-ml pipette. Cells were then centrifuged at 515 g for 10 min at 4° C. The supernatant was discarded, and the pellet was resuspended in a defined culture medium consisting of Neurobasal medium (Invitrogen, Cergy Pointoise, France) with a 2% solution of B27 supplement (Invitrogen, Cergy Pointoise, France), 2 mmol/liter of L-glutamine (Pan Biotech, Aidenbach, Germany), 2% of PS solution, and 10 ng/ml of brain-derived neurotrophic factor (BDNF; Pan Biotech, Aidenbach, Germany). Viable cells were counted in a Neubauer cytometer, using the trypan blue exclusion test. The cells were seeded at a density of 30,000 per well in 96-well plates precoated with poly-L-lysine (Corning Biocoat, Tewksbury, USA) and were cultured at 37° C. in an air (95%)-CO2 (5%) incubator. The medium was changed every 2 days.
On day 13, the cultures were exposed for 20 minutes to glutamate 40 μM in the absence or presence of Huperzia serrata extracts. Then the cells were washed out and new fresh medium containing or not Huperzia serrata extracts was added for another 48 hours.
The cells were then fixed by a cold solution ethanol/acetic acid (95:5 v/v) for 5 minutes at −20° C. After permeabilization with 0.1% of saponin (Sigma), cells were incubated for 2 hours with mouse monoclonal antibody against microtubule-associated-protein 2 (MAP 2; Sigma) at dilution of 1/400 in PBS containing 1% foetal calf serum (Invitrogen) and 0.1% of saponin.
Neuron survival assessment: For each condition 6 wells were assessed, 20 pictures per well were taken using InCell Analyzer™ 1000 (GE Healthcare) with 20× magnification to assess cell bodies (MAP 2 staining). Analysis of picture was done using Developer software (GE Healthcare), the number of neurons per picture was recorded. A mean of neuron number of the 20 pictures was automatically calculated per well, then one data was provided per well (total of 6 raw data were provided per condition).
Neurite network length assessment: For each condition 6 wells were assessed, 20 pictures per well were taken using InCell Analyzer™ 1000 with 20× magnification (20 pictures at X20 representing ˜80% of the total well surface), to assess MAP-2 staining. Analysis of picture was done using Developer software, the total neurite length per picture was recorded. A mean neurite length of the 20 pictures was automatically calculated per well, then one data was provided per well (total of 6 raw data were provided per condition).
The protocol used in these assays is the same as described in example 1. After 13 days of neuron culture, the candidate compounds were solved in DMSO and diluted in culture medium. […]

The next assay concerns mice. The conditions noted are these: adult and aged mice; cited from earlier work.
Another assay has as its system ALS patients. As to conditions: several months; cited from earlier work.

Turning to `O=C(O)c1cc(O)c(O)c(O)c1` [GA, gallic acid], the neuron survival in assay [1] (10 and 50 μM) was ~80%. The neurite network result in assay [1] (GA 10 pM to 50 μM) is given as “no protection”.
Take `CC1=C[C@H]2Cc3[nH]c(=O)ccc3[C@]3(C1)NCCC[C@H]23` [HupB, Huperzine B]: in the assay with mice, the “memory retention and memory retrieval” value was “improved memory retention and memory retrieval”.
On to `Nc1nc2ccc(OC(F)(F)F)cc2s1` [Riluzole], for which the prolongation of survival with ALS patients was ~7%.
For `COc1cc(/C=C/C(=O)O)cc(OC)c1O` [SA, sinapic acid], the neuron survival in assay [1] (100, 10 and 1 nM) was ~80%; in assay [1] (SA at the lowest concentrations), “inactive”. Besides, the neurite network entry in assay [1] (SA 10 pM to 50 μM) is on record as “no protective effect”.
With `O=C(O)/C=C/c1ccc(O)cc1` [pCouA, para-coumaric acid], the neuron survival in assay [1] (100 nM and 1 μM) is ~80%. Also, the neurite network entry in assay [1] (only 1 μM) is given as “protective effect”. For the same molecule, the “survival and neurite network” value in assay [1] (p-CouA at the lowest concentrations) is “inactive”.
